Data as given in ChEMBL document CHEMBL5537181 (J Med Chem, 2024).
pIC50: −log10 of the molar value. Active and inactive are the calls of the source.

Legend:
[1] = Antagonist activity at human alpha9N152G mutant alpha10 nAChR expressed in acetylcholine-induced Xenopus laevis oocytes assessed as inhibition of acetylcholine-induced current at 1:1 ratio of protein by two electrode voltage-clamp assay; type: cell-based; conditions: Oocyte
[2] = Antagonist activity at human alpha9N152G mutant alpha10 nAChR expressed in acetylcholine-induced Xenopus laevis oocytes assessed as inhibition of acetylcholine-induced current at 1:3 ratio of protein by two electrode voltage-clamp assay; type: cell-based; conditions: Oocyte
[3] = Antagonist activity at human alpha9alpha10G152N mutant nAChR expressed in acetylcholine-induced Xenopus laevis oocytes assessed as inhibition of acetylcholine-induced current at 1:1 ratio of protein by two electrode voltage-clamp assay; type: cell-based; conditions: Oocyte
[4] = Antagonist activity at human alpha9alpha10G152N mutant nAChR expressed in acetylcholine-induced Xenopus laevis oocytes assessed as inhibition of acetylcholine-induced current at 1:3 ratio of protein by two electrode voltage-clamp assay; type: cell-based; conditions: Oocyte
[5] = target: Neuronal acetylcholine receptor; alpha3/beta2 (Homo sapiens) (UniProt P17787+P32297); test: Antagonist activity at human alpha3beta2 nAChR expressed in acetylcholine-induced Xenopus laevis oocytes assessed as inhibition of acetylcholine-induced current at 30 nM by two electrode voltage-clamp assay; type: cell-based; conditions: Oocyte
[6] = target: T1, Neuronal acetylcholine receptor subunit alpha-7 (Homo sapiens, UniProt P36544); test: Antagonist activity at human alpha7 nAChR expressed in acetylcholine-induced Xenopus laevis oocytes assessed as inhibition of acetylcholine-induced current at 100 nM by two electrode voltage-clamp assay; type: cell-based; conditions: Oocyte, filed as antagonist
T1 sequence (P36544 whole entry): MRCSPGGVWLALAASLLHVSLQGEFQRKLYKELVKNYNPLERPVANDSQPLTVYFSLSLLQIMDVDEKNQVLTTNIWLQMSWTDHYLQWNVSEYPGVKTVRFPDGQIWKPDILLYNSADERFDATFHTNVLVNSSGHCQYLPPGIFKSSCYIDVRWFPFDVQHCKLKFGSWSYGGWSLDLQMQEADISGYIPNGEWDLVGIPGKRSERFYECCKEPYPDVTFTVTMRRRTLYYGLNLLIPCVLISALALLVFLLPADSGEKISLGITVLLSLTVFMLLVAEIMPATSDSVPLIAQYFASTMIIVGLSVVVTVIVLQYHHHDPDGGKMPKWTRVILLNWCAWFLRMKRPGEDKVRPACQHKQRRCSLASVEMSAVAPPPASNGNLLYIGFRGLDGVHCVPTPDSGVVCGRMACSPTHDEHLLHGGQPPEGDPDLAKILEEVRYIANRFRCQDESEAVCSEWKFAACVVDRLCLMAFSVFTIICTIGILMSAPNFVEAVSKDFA

[7] = target: T1, Neuronal acetylcholine receptor subunit alpha-7; test: Antagonist activity at human alpha7 nAChR expressed in acetylcholine-induced Xenopus laevis oocytes assessed as inhibition of acetylcholine-induced current by two electrode voltage-clamp assay; type: cell-based, Oocyte
[8] = target: Neuronal acetylcholine receptor; alpha3/beta2 (Rattus norvegicus) (UniProt P04757+P12390); test: Antagonist activity at rat alpha3beta2 nAChR expressed in acetylcholine-induced Xenopus laevis oocytes assessed as inhibition of acetylcholine-induced current at 100 nM by two electrode voltage-clamp assay; type: cell-based; conditions: Oocyte
[9] = target: Neuronal acetylcholine receptor; alpha9/alpha10 (Homo sapiens) (UniProt Q9UGM1+Q9GZZ6); test: Antagonist activity at human alpha9alpha10 nAChR expressed in acetylcholine-induced Xenopus laevis oocytes assessed as inhibition of acetylcholine-induced current at 30 nM at -40 mV holding potential by two electrode voltage-clamp assay; type: cell-based; conditions: Oocyte, filed as antagonist
[10] = target: Voltage-dependent N-type calcium channel subunit alpha-1B (Homo sapiens, UniProt Q00975); test: Inhibition of human Cav2.2 channel transfected in HEK293T cells co-expressed with human GABAB receptor assessed as inhibition of Cav2.2-mediated Ba2+ current at 100 nM measured for 3 to 5 days by whole-cell patch clamp assay; type: cell-based; conditions: time 3-5 day
Chain of Voltage-dependent N-type calcium channel subunit alpha-1B (Q00975 whole entry, looked up): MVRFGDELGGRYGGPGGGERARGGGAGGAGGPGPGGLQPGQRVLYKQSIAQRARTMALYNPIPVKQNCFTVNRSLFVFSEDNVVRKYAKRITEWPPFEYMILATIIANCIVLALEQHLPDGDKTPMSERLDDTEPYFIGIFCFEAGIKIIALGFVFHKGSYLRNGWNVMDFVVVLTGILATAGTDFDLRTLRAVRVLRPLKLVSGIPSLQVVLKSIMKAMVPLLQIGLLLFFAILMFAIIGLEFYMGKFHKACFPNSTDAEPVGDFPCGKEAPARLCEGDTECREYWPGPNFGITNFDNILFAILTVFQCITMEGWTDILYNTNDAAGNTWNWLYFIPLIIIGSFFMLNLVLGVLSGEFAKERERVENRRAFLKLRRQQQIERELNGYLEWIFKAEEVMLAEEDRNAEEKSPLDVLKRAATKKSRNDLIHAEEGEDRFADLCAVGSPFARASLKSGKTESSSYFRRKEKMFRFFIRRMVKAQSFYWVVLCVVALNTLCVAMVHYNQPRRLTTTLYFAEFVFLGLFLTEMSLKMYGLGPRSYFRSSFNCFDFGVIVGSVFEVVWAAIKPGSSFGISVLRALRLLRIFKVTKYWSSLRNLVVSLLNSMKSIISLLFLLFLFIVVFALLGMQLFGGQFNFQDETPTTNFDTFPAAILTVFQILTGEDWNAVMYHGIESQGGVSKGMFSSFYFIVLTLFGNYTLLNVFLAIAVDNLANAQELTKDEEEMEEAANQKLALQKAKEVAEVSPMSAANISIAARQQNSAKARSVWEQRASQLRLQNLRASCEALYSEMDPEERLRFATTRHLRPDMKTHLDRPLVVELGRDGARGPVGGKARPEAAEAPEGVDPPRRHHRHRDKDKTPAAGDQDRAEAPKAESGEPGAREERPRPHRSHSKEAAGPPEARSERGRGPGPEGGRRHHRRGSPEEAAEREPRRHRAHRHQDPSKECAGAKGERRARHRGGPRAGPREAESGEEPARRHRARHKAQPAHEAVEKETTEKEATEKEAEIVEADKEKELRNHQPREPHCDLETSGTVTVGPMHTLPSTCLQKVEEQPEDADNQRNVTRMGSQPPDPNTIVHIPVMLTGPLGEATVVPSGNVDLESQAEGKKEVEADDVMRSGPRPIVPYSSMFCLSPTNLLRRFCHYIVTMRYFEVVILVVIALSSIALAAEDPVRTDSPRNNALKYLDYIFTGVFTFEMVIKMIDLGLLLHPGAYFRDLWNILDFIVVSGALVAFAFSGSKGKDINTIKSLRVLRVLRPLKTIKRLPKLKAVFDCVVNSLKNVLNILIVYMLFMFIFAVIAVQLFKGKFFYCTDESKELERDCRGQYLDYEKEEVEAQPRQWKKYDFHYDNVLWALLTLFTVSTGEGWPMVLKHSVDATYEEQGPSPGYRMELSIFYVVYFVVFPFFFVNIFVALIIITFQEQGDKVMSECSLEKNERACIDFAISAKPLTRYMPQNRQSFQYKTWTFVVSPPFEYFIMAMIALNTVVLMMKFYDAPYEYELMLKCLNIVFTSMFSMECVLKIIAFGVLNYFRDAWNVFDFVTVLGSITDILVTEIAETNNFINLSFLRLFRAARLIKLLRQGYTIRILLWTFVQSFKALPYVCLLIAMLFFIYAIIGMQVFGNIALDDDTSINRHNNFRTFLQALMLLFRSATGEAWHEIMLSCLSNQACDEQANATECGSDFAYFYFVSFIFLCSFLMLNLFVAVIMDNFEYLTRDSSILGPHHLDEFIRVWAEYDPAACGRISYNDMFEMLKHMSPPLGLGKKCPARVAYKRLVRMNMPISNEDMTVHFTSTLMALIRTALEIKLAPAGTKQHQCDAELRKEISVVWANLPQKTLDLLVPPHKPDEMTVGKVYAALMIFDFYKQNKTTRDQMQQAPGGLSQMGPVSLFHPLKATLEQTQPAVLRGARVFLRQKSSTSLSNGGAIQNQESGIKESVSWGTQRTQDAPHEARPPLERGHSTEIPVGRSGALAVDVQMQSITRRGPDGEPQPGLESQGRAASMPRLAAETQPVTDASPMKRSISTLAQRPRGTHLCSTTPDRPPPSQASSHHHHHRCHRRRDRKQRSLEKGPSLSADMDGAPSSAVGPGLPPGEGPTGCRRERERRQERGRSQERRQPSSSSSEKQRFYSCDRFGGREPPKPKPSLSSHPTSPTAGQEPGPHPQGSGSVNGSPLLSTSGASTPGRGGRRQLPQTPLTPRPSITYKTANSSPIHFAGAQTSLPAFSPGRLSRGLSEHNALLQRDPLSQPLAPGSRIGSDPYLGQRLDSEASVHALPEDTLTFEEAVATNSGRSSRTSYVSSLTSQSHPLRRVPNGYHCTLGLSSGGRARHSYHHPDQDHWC

Rattus norvegicus [11] = test: Analgesic activity in Chronic constriction injury rat model assessed as increase in paw withdrawal threshold at 250 microg/kg,IM administration and measured for 0.5 to 48 hrs; type: functional, organism-based; conditions: dose 250.0 µg/kg, time 0.5-48 hrs
Rattus norvegicus [12] = test: Analgesic activity in Chronic constriction injury rat model assessed as decrease in hyperalgesia at 250 microg/kg,IM administration and measured for 0.5 to 48 hrs; type: functional, organism-based; conditions: dose 250.0 µg/kg, time 0.5-48 hrs
Rattus norvegicus [13] = test: Analgesic activity in Chronic constriction injury rat model assessed as decrease in hyperalgesia at 250 microg/kg,IM administrated every 2 hrs for 14 days; type: functional, organism-based; conditions: dose 250.0 µg/kg, time 14.0 day
Rattus norvegicus [14] = test: Analgesic activity in Chronic constriction injury rat model assessed as decrease in hyperalgesia at 0.25 to 25 microg/kg,IM administrated every 2 hrs for 14 days; type: functional, organism-based; conditions: dose 0.25-25 µg/kg, time 14.0 day
[15] = target: Sodium channel protein type 10 subunit alpha (Homo sapiens) (UniProt Q9Y5Y9); test: Inhibition of Nav1.8 (unknown origin) at 1 uM
Chain of Sodium channel protein type 10 subunit alpha (Homo sapiens) (Q9Y5Y9 whole entry, looked up): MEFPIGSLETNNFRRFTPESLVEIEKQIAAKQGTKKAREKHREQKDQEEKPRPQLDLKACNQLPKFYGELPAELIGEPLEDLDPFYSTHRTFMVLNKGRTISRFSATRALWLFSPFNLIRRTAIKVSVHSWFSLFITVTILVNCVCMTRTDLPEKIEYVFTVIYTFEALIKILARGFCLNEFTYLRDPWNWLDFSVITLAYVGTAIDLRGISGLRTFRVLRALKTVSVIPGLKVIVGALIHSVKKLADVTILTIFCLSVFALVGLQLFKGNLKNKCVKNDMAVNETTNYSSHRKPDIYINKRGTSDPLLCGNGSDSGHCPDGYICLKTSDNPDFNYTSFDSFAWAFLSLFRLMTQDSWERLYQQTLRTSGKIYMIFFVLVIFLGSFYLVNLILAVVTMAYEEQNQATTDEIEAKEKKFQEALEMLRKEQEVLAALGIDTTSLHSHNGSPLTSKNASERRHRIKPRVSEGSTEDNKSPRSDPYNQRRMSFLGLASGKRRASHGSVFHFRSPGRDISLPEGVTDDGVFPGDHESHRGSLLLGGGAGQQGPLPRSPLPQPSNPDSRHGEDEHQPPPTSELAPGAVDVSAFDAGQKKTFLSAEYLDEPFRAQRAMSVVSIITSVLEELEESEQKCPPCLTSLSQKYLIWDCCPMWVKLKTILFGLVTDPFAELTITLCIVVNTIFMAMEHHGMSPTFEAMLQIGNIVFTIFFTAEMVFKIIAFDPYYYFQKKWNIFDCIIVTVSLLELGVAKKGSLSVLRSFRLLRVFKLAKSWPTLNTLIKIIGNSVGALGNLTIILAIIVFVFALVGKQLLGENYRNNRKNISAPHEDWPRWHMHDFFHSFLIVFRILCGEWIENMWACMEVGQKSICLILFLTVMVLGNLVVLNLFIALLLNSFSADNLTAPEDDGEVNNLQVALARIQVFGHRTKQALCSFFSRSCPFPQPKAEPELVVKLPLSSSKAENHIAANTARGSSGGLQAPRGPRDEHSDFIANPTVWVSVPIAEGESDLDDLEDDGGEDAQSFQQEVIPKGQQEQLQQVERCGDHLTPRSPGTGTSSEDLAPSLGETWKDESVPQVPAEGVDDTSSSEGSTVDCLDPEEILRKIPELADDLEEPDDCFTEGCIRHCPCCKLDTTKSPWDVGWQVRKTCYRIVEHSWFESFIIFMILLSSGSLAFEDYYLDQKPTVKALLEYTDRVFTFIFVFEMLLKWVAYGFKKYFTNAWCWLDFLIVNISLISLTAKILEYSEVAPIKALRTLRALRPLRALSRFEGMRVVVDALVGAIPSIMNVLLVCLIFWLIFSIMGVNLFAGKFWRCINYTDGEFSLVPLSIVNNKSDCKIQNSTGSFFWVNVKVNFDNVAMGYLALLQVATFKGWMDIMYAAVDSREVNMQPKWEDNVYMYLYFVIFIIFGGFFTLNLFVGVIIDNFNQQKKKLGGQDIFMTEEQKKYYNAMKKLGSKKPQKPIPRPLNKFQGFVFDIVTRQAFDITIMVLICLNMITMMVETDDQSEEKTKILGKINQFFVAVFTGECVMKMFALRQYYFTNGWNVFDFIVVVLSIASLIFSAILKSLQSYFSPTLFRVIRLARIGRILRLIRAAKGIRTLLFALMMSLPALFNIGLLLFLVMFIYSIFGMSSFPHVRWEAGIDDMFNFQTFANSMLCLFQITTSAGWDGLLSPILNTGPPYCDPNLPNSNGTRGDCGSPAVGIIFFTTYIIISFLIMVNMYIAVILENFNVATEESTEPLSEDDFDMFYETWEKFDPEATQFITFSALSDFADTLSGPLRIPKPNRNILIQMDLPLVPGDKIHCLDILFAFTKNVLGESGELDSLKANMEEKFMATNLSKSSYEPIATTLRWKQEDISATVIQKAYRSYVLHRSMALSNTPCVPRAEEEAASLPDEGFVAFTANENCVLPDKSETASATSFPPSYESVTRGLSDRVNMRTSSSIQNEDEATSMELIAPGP

[16] = target: T2, Potassium voltage-gated channel subfamily KQT member 3 (Homo sapiens) (UniProt O43525); test: Inhibition of KCNQ3 (unknown origin) at 1 uM
T2 sequence (whole entry): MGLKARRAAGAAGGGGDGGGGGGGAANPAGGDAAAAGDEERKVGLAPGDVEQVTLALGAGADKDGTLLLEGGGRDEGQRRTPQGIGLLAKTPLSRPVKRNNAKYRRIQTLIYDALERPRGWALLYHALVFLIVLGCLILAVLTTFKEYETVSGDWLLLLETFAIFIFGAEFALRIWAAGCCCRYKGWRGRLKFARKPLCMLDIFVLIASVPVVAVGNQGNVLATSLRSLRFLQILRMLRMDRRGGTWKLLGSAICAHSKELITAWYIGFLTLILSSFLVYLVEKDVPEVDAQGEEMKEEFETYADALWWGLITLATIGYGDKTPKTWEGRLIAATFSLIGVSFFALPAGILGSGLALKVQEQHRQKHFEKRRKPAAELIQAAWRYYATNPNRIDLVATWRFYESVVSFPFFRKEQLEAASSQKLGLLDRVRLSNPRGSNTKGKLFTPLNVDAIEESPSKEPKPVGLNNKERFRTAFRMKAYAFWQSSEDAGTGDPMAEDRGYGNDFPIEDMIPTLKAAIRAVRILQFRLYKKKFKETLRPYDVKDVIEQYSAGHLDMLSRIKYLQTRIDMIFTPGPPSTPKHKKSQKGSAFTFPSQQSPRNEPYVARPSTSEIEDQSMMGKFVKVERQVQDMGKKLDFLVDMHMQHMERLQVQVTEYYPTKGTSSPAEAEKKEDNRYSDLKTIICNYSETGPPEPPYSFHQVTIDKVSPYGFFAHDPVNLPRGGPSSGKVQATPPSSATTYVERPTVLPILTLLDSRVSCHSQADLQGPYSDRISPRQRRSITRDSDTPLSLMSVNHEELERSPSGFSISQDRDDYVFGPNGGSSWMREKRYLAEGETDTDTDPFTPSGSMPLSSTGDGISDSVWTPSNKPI

[17] = target: T3, Acid-sensing ion channel 3 (Homo sapiens) (UniProt Q9UHC3); test: Inhibition of ASIC3 (unknown origin) at 1 uM
T3 sequence (whole entry): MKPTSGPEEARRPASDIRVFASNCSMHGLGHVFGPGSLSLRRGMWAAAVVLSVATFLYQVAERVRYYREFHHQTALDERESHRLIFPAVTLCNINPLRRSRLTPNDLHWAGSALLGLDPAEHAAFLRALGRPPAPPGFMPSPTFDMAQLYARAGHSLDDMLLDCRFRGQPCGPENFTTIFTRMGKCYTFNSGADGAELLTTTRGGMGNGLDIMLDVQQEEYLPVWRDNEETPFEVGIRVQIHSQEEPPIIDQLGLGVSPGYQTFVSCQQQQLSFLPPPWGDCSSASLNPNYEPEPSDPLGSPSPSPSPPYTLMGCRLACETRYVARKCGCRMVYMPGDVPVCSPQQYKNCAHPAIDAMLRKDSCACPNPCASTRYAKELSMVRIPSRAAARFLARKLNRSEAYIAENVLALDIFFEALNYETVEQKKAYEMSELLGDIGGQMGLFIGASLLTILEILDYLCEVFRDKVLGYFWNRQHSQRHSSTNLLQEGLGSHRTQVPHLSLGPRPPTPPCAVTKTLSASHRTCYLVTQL

CC[C@H](C)[C@H](NC(=O)[C@H](CCCNC(=N)N)NC(=O)[C@H](CCCNC(=N)N)NC(=O)[C@H](Cc1ccc(O)cc1)NC(=O)[C@H](CCCNC(=N)N)NC(=O)[C@H](CCCNC(=N)N)NC(=O)[C@H](CCCNC(=N)N)NC(=O)[C@H](CCCNC(=N)N)NC(=O)[C@H](CC(=O)O)NC(=O)[C@H](Cc1ccc(O)cc1)NC(=O)[C@@H]1CCCN1C(=O)[C@H](CO)NC(=O)[C@H](CCCNC(=N)N)NC(=O)[C@H](Cc1ccc(O)cc1)NC(=O)[C@H](CCCNC(=N)N)NC(=O)CN)C(=O)N[C@H](C(=O)N[C@@H](CC(=O)O)C(N)=O)[C@@H](C)O
pIC50 [1]: 8.44
pIC50 [2]: 8.06
pIC50 [3]: 7.60
pIC50 [4]: 7.68
inhibition [5]: inactive
inhibition [6]: 80%
pIC50 [7]: 7.36
inhibition [8]: inactive
inhibition [9]: Active
inhibition [10]: Active
Activity (Rattus norvegicus [11]): Active
Activity (Rattus norvegicus [12]): Active
Activity (Rattus norvegicus [13]): Active
Activity (Rattus norvegicus [14]): Active
inhibition [15]: inactive
inhibition [16]: inactive
inhibition [17]: inactive
